Format in all cases: biochemical
In assay [1] the target is MMP-13 (Collagenase 3) (Homo sapiens, UniProt P45452). The assay is described as follows: inhibition of MMP-13 hydrolysis of thiopeptolide substrate. The following applies: thiopeptolide substrate, pH 6.0, 22° C.; read-out: (IC50) MMP-13. From the text: The invention compounds have been evaluated in standard in vitro assays and shown to be potent inhibitors of several matrix metalloproteinase enzymes.

In assay [2] the target is MMP-3 (stromelysin) (Homo sapiens, UniProt P08254). Description: inhibition of MMP-3 hydrolysis of thiopeptolide substrate. The following applies: thiopeptolide substrate, pH 6.0, 22° C.; read-out: (IC50) MMP-3. From the text: The assays measure the amount by which a test compound reduces the hydrolysis of a thiopeptolide substrate caused by a matrix metalloproteinase enzyme. Such assays are described in detail by Ye, et al., in Biochemistry, 1992;31(45):11231-11235).
MMP-3 (stromelysin), sequence (P08254 100-477): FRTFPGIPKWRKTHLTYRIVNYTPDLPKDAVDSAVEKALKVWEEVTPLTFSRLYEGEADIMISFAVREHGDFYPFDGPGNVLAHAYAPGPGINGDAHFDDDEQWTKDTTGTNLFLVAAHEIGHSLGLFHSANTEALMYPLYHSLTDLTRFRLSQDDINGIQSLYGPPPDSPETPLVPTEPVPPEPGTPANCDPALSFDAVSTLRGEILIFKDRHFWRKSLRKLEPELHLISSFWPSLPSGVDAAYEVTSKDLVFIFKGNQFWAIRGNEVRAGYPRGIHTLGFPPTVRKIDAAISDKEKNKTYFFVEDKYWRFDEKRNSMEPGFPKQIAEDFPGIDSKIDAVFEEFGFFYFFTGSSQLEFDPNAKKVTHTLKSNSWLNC
Thiopeptolide substrates show virtually no decomposition or hydrolysis in the absence of a matrix metalloproteinase enzyme. A typical thiopeptolide substrate commonly utilized for assays is Ac-Pro-Leu-Gly-thioester-Len-Len-Gly-O Et. […] Assays are carried out with and without matrix metalloproteinase inhibitor compounds, and the amount of hydrolysis is compared for a determination of inhibitory activity of the test compounds.
In the table, MMP-1 refers to interstitial collagenase; MMP-2 refers to Gelatinase A; MMP-3 refers to stromelysin; MMP-7 refers to matrilysin; and MMP-13 refers to Collagenase 3.

The target of assay [3] is T1, MMP-2 (Gelatinase A) (Homo sapiens, UniProt P08253).
T1 sequence (P08253 110-660): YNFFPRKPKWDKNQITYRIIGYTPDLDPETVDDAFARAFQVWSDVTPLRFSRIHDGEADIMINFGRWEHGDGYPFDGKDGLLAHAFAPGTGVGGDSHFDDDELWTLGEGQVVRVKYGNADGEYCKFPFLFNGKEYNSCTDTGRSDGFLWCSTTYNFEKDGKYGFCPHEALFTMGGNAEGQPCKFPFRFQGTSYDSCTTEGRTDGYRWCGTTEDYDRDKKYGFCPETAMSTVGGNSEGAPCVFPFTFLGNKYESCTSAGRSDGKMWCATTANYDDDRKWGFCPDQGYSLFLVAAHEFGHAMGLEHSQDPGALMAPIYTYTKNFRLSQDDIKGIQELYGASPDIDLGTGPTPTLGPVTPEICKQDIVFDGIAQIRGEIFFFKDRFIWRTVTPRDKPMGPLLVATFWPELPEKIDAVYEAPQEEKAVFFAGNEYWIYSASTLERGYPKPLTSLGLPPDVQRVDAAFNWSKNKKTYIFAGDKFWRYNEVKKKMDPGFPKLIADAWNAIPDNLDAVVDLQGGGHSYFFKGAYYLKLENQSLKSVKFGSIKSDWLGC
The assay is described as follows: inhibition of MMP-2 hydrolysis of thiopeptolide substrate. The following applies: thiopeptolide substrate, pH 6.0, 22° C.; read-out: (IC50) MMP-2.

The structures appear in SMILES notation.

A word on the IC50: it is the concentration needed to halve the response being measured.

`O=C(COc1ccccc1)NC(CC(=O)c1ccc2oc3ccccc3c2c1)C(=O)O` (stereo not drawn) [Example 28, 4-Dibenzofuran-2-yl-4-oxo-2-(2-phenoxy-acetylamino)-butyric acid]: the IC50 was determined as 12000 nM in assay [1], 510 nM in assay [2] and 180 nM in assay [3].

Regarding `O=C(CCCc1ccc(Br)cc1)NC(CC(=O)c1ccc2oc3ccccc3c2c1)C(=O)O` (stereo not drawn) [Example 31, 2-[4-(4-Bromo-phenyl)-butyrylamino]-4-dibenzofuran-2-yl-4-oxo-butyric acid], the 50% inhibitory concentration (IC50) in assay [1] was 25000 nM; in assay [2] it was 5300 nM; in assay [3], 600 nM.

On to `O=C(COCc1ccccc1)NC(CC(=O)c1ccc2oc3ccccc3c2c1)C(=O)O` (stereo not drawn) [Example 32, 2-(2-Benzyloxy-acetylamino)-4-dibenzofuran-2-yl-4-oxo-butyric acid], for which the IC50 amounted to 3500 nM in assay [1], 330 nM in assay [2] and 41 nM in assay [3].

Turning to `CCCCCCC(=O)NC(CC(=O)c1ccc2oc3ccccc3c2c1)C(=O)O` (stereo not drawn) [Example 33, 4-Dibenzofuran-2-yl-2-heptanoylamino-4-oxo-butyric acid], the IC50 in assay [1] was found to be 4700 nM; in assay [2], 640 nM; in assay [3], 60 nM.

`CCCCc1ccc(C(=O)NC(CC(=O)c2ccc3oc4ccccc4c3c2)C(=O)O)cc1` (stereo not drawn) [Example 34, 2-(4-Butyl-benzoylamino)-4-dibenzofuran-2-yl-4-oxo-butyric acid]: the IC50 in assay [1] was 49000 nM; in assay [2] it was 5400 nM; in assay [3], 870 nM.

Turning to `N#Cc1ccc(C(=O)NC(CC(=O)c2ccc3oc4ccccc4c3c2)C(=O)O)cc1` (stereo not drawn) [Example 35, 2-(4-Cyano-benzoylamino)-4-dibenzofuran-2-yl-4-oxo-butyric acid], the IC50 in assay [1] came to 11000 nM; in assay [2], 1100 nM; in assay [3] it was 110 nM.

With `O=C(CC(NC(=O)c1sccc1Cl)C(=O)O)c1ccc2oc3ccccc3c2c1` (stereo not drawn) [Example 36, 2-[(3-Chloro-thiophene-2-carbonyl)-amino)-4-dibenzofuran-2-yl-4-oxo-butyric acid], the figures for the IC50 in assay [1], in assay [2] and in assay [3] were 13000 nM, 1000 nM and 140 nM, respectively.

As for `CCCCOc1ccc(C(=O)NC(CC(=O)c2ccc3oc4ccccc4c3c2)C(=O)O)cc1` (stereo not drawn) [Example 37, 2-(4-Butoxy-benzoylamino)-4-dibenzofuran-2-yl-4-oxo-butyric acid], the IC50 in assay [1] came to 58000 nM; in assay [2] it was 5000 nM; in assay [3] it was 800 nM.

On to `O=C(CC(NC(=O)C1CC1)C(=O)O)c1ccc2oc3ccccc3c2c1` (stereo not drawn) [Example 38, 2-(Cyclopropanecarbonyl-amino)-4-dibenzofuran-2-yl-4-oxo-butyric acid], for which the IC50 is 5600 nM in assay [1], 850 nM in assay [2] and 90 nM in assay [3].

For `O=C(CC(NC(=O)c1ccc(Cl)cc1)C(=O)O)c1ccc2oc3ccccc3c2c1` (stereo not drawn) [Example 39, 2-(4-Chloro-benzoylamino)-4-dibenzofuran-2-yl-4-oxo-butyric acid], the IC50 in assay [1] amounted to 12000 nM; in assay [2], 1200 nM; in assay [3], 150 nM.

Turning to `O=C(CC(NC(=O)c1ccco1)C(=O)O)c1ccc2oc3ccccc3c2c1` (stereo not drawn) [Example 41, 4-Dibenzofuran-2-yl-2-[(furan-2-carbonyl)-amino]-4-oxo-butyric acid], the IC50 came to 12000 nM in assay [1], 1500 nM in assay [2] and 140 nM in assay [3].

Regarding `O=C(CC(NC(=O)c1ccc(Br)cc1)C(=O)O)c1ccc2oc3ccccc3c2c1` (stereo not drawn) [Example 42, 2-(4-Bromo-benzoylamino)-4-dibenzofuran-2-yl-4-oxo-butyric acid], the half-maximal inhibitory concentration (IC50) in assay [1] came to 17000 nM; in assay [2], 1300 nM; in assay [3], 180 nM.

Turning to `O=C(CC(NC(=O)c1ccc(F)cc1)C(=O)O)c1ccc2oc3ccccc3c2c1` (stereo not drawn) [Example 43, 4-Dibenzofuran-2-yl-2-(4-fluoro-benzoylamino)-4-oxo-butyric acid], the figures for the IC50 in assay [1], in assay [2] and in assay [3] were 7100 nM, 660 nM and 70 nM, respectively.

Turning to `O=C(CC(NC(=O)c1cnc2ccccc2n1)C(=O)O)c1ccc2oc3ccccc3c2c1` (stereo not drawn) [Example 44, 4-Dibenzofuran-2-yl-4-oxo-2-[(quinoxaline-2-carbonyl)-amino]-butyric acid], the figures for the IC50 in assay [1], in assay [2] and in assay [3] were 27000 nM, 3500 nM and 310 nM, respectively.

In the case of `O=C(CC(NC(=O)c1ccccn1)C(=O)O)c1ccc2oc3ccccc3c2c1` (stereo not drawn) [Example 45, 4-Dibenzofuran-2-yl-4-oxo-2-[(pyridine-2-carbonyl)-amino]-butyric acid], the values for the IC50 in assay [1], in assay [2] and in assay [3] were 15000 nM, 1000 nM and 110 nM, respectively.

For `COc1ccc(C(=O)NC(CC(=O)c2ccc3oc4ccccc4c3c2)C(=O)O)cc1` (stereo not drawn) [Example 46, 4-Dibenzofuran-2-yl-2-(4-methoxy-benzoylamino)-4-oxo-butyric acid], the IC50 in assay [1] came to 11000 nM; in assay [2], 1000 nM; in assay [3] it was 140 nM.

With `COc1ccc(C(=O)NC(CC(=O)c2ccc3oc4ccccc4c3c2)C(=O)O)cc1OC` (stereo not drawn) [Example 47, 4-Dibenzofuran-2-yl-2-(3,4-dimethoxy-benzoylamino)-4-oxo-butyric acid], the IC50 in assay [1] was determined as 8800 nM; in assay [2], 870 nM; in assay [3], 130 nM.

In the case of `O=C(CC(NC(=O)c1ccc(C(F)(F)F)cc1)C(=O)O)c1ccc2oc3ccccc3c2c1` (stereo not drawn) [Example 48, 4-Dibenzofuran-2-yl-4-oxo-2-(4-trifluoromethyl-benzoylamino)-butyric acid], the IC50 was found to be 20000 nM in assay [1], 1500 nM in assay [2] and 320 nM in assay [3].

Turning to `O=C(CC(NC(=O)C1CCCC1)C(=O)O)c1ccc2oc3ccccc3c2c1` (stereo not drawn) [Example 49, 2-(Cyclopentanecarbonyl-amino)-4-dibenzofuran-2-yl-4-oxo-butyric acid], the IC50 in assay [1] was 4400 nM; in assay [2], 350 nM; in assay [3] it was 80 nM.

For the molecule `O=C(CC(NC(=O)C1CCCCC1)C(=O)O)c1ccc2oc3ccccc3c2c1` (stereo not drawn) [Example 50, 2-(Cyclohexanecarbonyl-amino)-4-dibenzofuran-2-yl-4-oxo-butyric acid], the values for the half-inhibitory concentration (IC50) in assay [1], in assay [2] and in assay [3] were 9100 nM, 700 nM and 150 nM, respectively.

For the molecule `O=C(CC(NC(=O)c1cccs1)C(=O)O)c1ccc2oc3ccccc3c2c1` (stereo not drawn) [Example 51, 4-Dibenzofuran-2-yl-4-oxo-2-[(thiophene-2-carbonyl)-amino]-butyric acid], the IC50 in assay [1] was determined as 16000 nM; in assay [2], 1300 nM; in assay [3], 160 nM.

With `O=C(Cc1cccs1)NC(CC(=O)c1ccc2oc3ccccc3c2c1)C(=O)O` (stereo not drawn) [Example 52, 4-Dibenzofuran-2-yl-4-oxo-2-(2-thiophen-2-yl-acetylamino)-butyric acid], the values for the half-inhibitory concentration (IC50) in assay [1], in assay [2] and in assay [3] were 48000 nM, 7700 nM and 2500 nM, respectively.

Turning to `O=C(CC(NC(=O)c1ccc2c(c1)OCO2)C(=O)O)c1ccc2oc3ccccc3c2c1` (stereo not drawn) [Example 53, 2-[(Benzo[1,3)dioxole-5-carbonyl)-amino]-4-dibenzofuran-2-yl-4-oxo-butyric acid], the concentration for half-maximal inhibition (IC50) in assay [1] was determined as 9200 nM; in assay [2], 1000 nM; in assay [3], 130 nM.

As to `CCC(C(=O)NC(CC(=O)c1ccc2oc3ccccc3c2c1)C(=O)O)c1ccccc1` (stereo not drawn) [Example 54, 4-Dibenzofuran-2-yl-4-oxo-2-(2-phenylbutyrylamino)-butyric acid], the values for the IC50 in assay [1], in assay [2] and in assay [3] were 1500 nM, 250 nM and 60 nM, respectively.

Take `Cc1nn(-c2ccccc2)nc1C(=O)NC(CC(=O)c1ccc2oc3ccccc3c2c1)C(=O)O` (stereo not drawn) [Example 55, 4-Dibenzofuran-2-yl-2-[(5-methyl-2-phenyl-2H-[1,2,3]triazole-4-carbonyl)-amino]-4-oxo-butyric acid]: the IC50 in assay [1] was found to be 70000 nM; in assay [2] it was 14000 nM; in assay [3] it was 1800 nM.

(Values after US6020366A, “Butyric acid matrix metalloproteinase inhibitors” (priority 1998, dated 2000).)
